Measurements taken from the METLIN SMRT retention time set (Domingo-Almenara et al. 2019).

Experiment: gradient 5% acetonitrile 3 min, to 50% in 2 min, to 85% in 15 min, held 3 min, 100 µL/min
Conditions: column: Zorbax Extend-C18 2.1 x 50 mm; eluents: water / acetonitrile, 0.1% formic acid
How it was run: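 Pure standards were run in mixtures of ~100 molecules by HPLC coupled to a quadrupole time-of-flight mass spectrometer. The column was a Zorbax Extend-C18 (2.1 × 50 mm, 1.8 μm) at 100 μL/min, with water and acetonitrile each containing 0.1% formic acid, in positive and negative ionization mode. Dead and dwell volumes were 40 μL and 900 μL. Retention time was taken from computationally picked adduct peaks, each manually inspected, with data collected over 3 months.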

| SMILES | RP-LC retention time [s] |
| --- | --- |
| Cc1c(C(=O)NCC2CCCO2)cnn1-c1cc(-c2nc(C3CC3)no2)ccn1 (configuration not stated) | 837 |
| COc1cc([C@@H]2c3cc4c(cc3[C@H](O)[C@@H](CO)[C@@H]2C(=O)NCc2ccccc2)OCO4)cc(OC)c1OC | 700 |
| NC(=O)[C@@H]1C[C@H](Oc2cccnc2)CN1C(=O)c1cccs1 | 532 |
| O=C(Cn1cnc2ccccc2c1=O)N1CCC(c2nnc(-c3ccco3)o2)CC1 | 621 |
| O=C1C2N=NN(Cc3nc(-c4ccc(Br)cc4)no3)C2C(=O)N1c1ccccc1 (configuration not stated) | 1030 |
| CN(C)C(=O)c1csc(S(=O)(=O)N2CCC(C(=O)NCc3cccnc3)CC2)c1 | 579 |
| O=S(=O)(c1ccc(F)cc1F)N1CCc2nc(-c3ccc(Cl)cc3)ncc2C1 | 1200 |
| CC(=O)Nc1ccc(C2(C(=O)O)CCC2)cc1 | 637 |
| COc1ccc(-c2noc(-c3nc(Cc4ccccc4)no3)n2)cc1 | 1170 |
| Cc1ccc(CN2CCC(N3CC(F)(F)C[C@H]3COc3cccnc3)CC2)s1 | 587 |
| Cc1ccc(CNC(=O)C2CCCN(c3nc4ccsc4c(=O)n3-c3ccc(C)cc3)C2)cc1 (configuration not stated) | 977 |
| CCc1noc(-c2cnc3nc(C)ccc3c2NC(C)c2ccc(F)cc2)n1 (configuration not stated) | 798 |
| CCC(C)NC(=O)N1CCc2c(c(-c3nc(-c4cccc(F)c4)no3)nn2C)C1 (configuration not stated) | 904 |
| Cc1nc(-n2cccc2)sc1C(=O)NCCN(C)C | 547 |
| CCOc1ccc(-c2ccc(=O)n(CCc3nc(-c4cccc(F)c4)no3)n2)cc1 | 1040 |
| COc1ccc(-c2nnc(COc3cccc(NC(=O)Cc4cccs4)c3)o2)cc1 | 906 |
| O=C(C1CCCN(c2ncnc3c2nc2n3CCCCC2)C1)N1CCN(c2ccc(F)cc2)CC1 (configuration not stated) | 829 |
| COc1ccc(NC(=O)N2CCC(c3cc(N)on3)CC2)cc1F | 663 |
| CCC(CC)C(=O)N1CCc2c(c(C(=O)N3CCCC(C(=O)Nc4ccccc4)C3)nn2C)C1 (configuration not stated) | 761 |
| CCCNC(=O)C1CCN(c2cnc(N3CCCCCC3)nc2)CC1 | 666 |
| CC(C)(C)c1ccc(C(=O)N2CCc3nc[nH]c3C2)cc1 | 634 |
| CCc1noc(COC2CCCN(C(=O)NCc3ccco3)C2)n1 (configuration not stated) | 722 |

| SMILES | RP-LC retention time [s] |
| --- | --- |
| COc1ccc(C2(C(=O)N3CCc4nn(C)c(=O)n4CC3)CC2)cc1 | 657 |
| CCn1c(C2CCCN(C(=O)NCC(C)C)C2)nn(C)c1=O (configuration not stated) | 628 |
| O=S(=O)(Cc1ccccc1Cl)NCC1CCN(Cc2ccsc2)CC1 | 588 |
| CCN1C(=O)COc2ccc(-c3noc(Cc4ccc(Cl)cc4)n3)cc21 | 1100 |
| Cc1noc(C)c1CN1CCN(C(=O)Cn2c(=O)oc3ccccc32)CC1 | 550 |
| COc1ccc(NC(=O)/C=C/c2ccc(Cl)cc2)cc1 | 1090 |
| CCOC(=O)C(C)NC(=O)N1CCN(c2nc3ccccc3n2CC)CC1 (configuration not stated) | 609 |
| Cc1ccc(-n2nc3c(=O)n(C(C)C(=O)NC4CC4)nc(C)c3c2C)cc1 (configuration not stated) | 744 |
| CNC(=O)C1CN(S(=O)(=O)c2ccccc2)CC12CCCCC2 (configuration not stated) | 776 |
| Cc1cc(C)cc(NC(=O)Cn2cccc2-c2nnc(C3CCC3)o2)c1 | 920 |
| CC(C)n1cnc(S(=O)(=O)N2CCCC(C(=O)NCc3ccc(N(C)C)cc3)C2)c1 (configuration not stated) | 597 |
| CCN(CCN(C)C)c1nc(-c2ccc(OC)cc2)nc2ccccc12 | 562 |
| CCc1nc2cc(-c3noc(-c4ccc5ccccc5n4)n3)ccc2o1 | 1110 |
| CCNC(=O)C1CCN(C(=O)Nc2ccc(NC(=O)Nc3ccc(C)cc3C)cc2)CC1 | 729 |
| Cc1ccc(S(=O)(=O)Nc2ccc(-c3cn4ccccc4n3)cc2)cc1[N+](=O)[O-] | 662 |
| O=C(C1CCN(c2cn[nH]c(=O)c2)C1)N1CCCC1 (configuration not stated) | 571 |
| CCCc1cc(N2CCN(C(=O)c3ccn(CC)n3)CC2)nc2nnc(CC)n12 | 616 |
| CC(C)NC(=O)c1nnc(-c2ccc(S(=O)(=O)N(C)C)cc2)o1 | 737 |
| O=C(NCC(c1cccnc1)N1CCOCC1)c1ccccc1 (configuration not stated) | 522 |
| O=C(Nc1ccc(Cl)cc1)N1CCCC1c1nc(-c2ccc(F)cc2F)no1 (configuration not stated) | 1040 |
| O=C(c1ccc(-n2cnnn2)cc1)N1CCCc2ccccc21 | 734 |
| CCNc1nc(C)cc(N2CCN(C(=O)Nc3ccc(C)cc3C)CC2)n1 | 656 |

The remaining lines, values ahead:

| RP-LC retention time [s] | SMILES |
| --- | --- |
| 623 | O=C(Nc1ccc(F)cc1)c1nnc(COCC(=O)N2CCN(c3ccccn3)CC2)s1 |
| 950 | CCc1nn2c(CNC(=O)c3ccc(C)cc3)c(-c3ccccc3)nc2s1 |
| 580 | Cc1cccc(CNC(=O)c2nc3cccnc3n(CC(C)C)c2=O)c1 |
| 697 | Cc1cccc(NC(=O)Nc2c(-c3ccc(F)cc3)nc3ccccn23)c1C |
| 750 | CC(C)CC(=O)NCCn1c(=O)n(Cc2ccc(F)cc2)c2cccnc21 |
| 937 | O=C(Nc1ncc(Cc2ccc(F)cc2)s1)c1ccc([N+](=O)[O-])cc1 |
| 874 | Cc1ccc(NC(=O)NC2CCN(c3ccc(F)c(C)c3)C2=O)c(C)c1 (configuration not stated) |
| 667 | CCC(=O)Nc1ccc2c(c1)CN(C(=O)c1ccccc1)C(C(=O)N1CCCC1)C2 (configuration not stated) |
| 632 | COc1cc(CNC(=O)CCc2c(-c3ccc(F)cc3)nc3ccccn23)cc(OC)c1OC |
| 986 | CC(C)N1C(=O)C(C)(C(=O)Nc2ccc(F)cc2)Oc2cccnc21 (configuration not stated) |
| 1010 | COc1ccc(OC)c(S(=O)(=O)NCC(c2cccs2)N2CCc3ccccc32)c1 (configuration not stated) |
| 864 | O=C(NCc1ccc(F)cc1)C1=C2CCCN2c2ccc(F)cc2S1(=O)=O |
| 1120 | CSc1ccccc1NC(=O)c1ccc(COc2ccc(C)cc2)o1 |
| 648 | Cc1ccc(C)c2c(=O)c3c([nH]c12)CCN(CC(=O)Nc1ccc(F)cc1F)C3 |
| 581 | COC(=O)c1ccc(NC(=O)C(=O)NCCN2CCN(c3ccccc3OC)CC2)cc1 |
| 757 | CCOc1ccc(C(=O)N2C[C@@H]3C[C@H]2C[C@@H]3NC(=O)c2ccccc2)cc1 |
| 760 | Cc1ccc(NC(=O)C2(C)Oc3cccnc3NC2=O)cc1C (configuration not stated) |
| 677 | COc1ccc(C2C(C(=O)Nc3ccccn3)c3cc(OC)c(OC)cc3C(=O)N2C)cc1OC (configuration not stated) |
| 684 | COc1ccccc1NC(=O)NCC(O)c1ccsc1 (configuration not stated) |
| 869 | CC1(C)C(=O)N(CC(=O)Nc2ccccc2F)c2ccccc21 |
| 842 | O=C(NCc1ccccc1)c1nc2ccccn2c1-c1ccsc1 |
| 1010 | COc1ccc(OC)c(NC(=O)N2CCOc3ccc(Cl)cc32)c1 |
| 619 | O=C1C(c2cccnc2)N(Cc2ccco2)C(=O)CN1c1ccccc1 (configuration not stated) |
